This note sets out measurements from patent US7919255B2, “Assessment of skeletal growth using measurements of NT-CNP peptides” (priority 2003, dated 2011).

One data set concerns adult sheep. The data set can be described thus: Dexamethasone 0.25 mg/kg/day for 4 days in adult sheep. The class given is in vivo. The conditions noted are these: after 48 hours of dexamethasone treatment. As to the method: (§1) FIG. 11A and FIG. 11B: Effect of 4 days of treatment with a glucocorticoid (dexamethasone, 0.25 mg/kg/day) in 12 week old lambs (filled circles, n=8) and in adult sheep (open circles, n=8) on (A) plasma NT-CNP and (B) change (?) in plasma alkaline phosphatase activity (ALP). Values are mean±SEM;
(§2) This differential response to dexamethasone was highly significant for both NT-CNP (F=5.4, p<0.001) and ALP (F=4.1, p=0.002). After 48 hours of dexamethasone treatment, plasma NT-CNP in lambs fell 30.8±3.5% from basal compared with 17.7±2.7% in adult sheep. Both the onset and offset of dexamethasone's action on NT-CNP preceded that of ALP (FIG. 11A and FIG. 11B).

A further data set has as its system 12 week old lambs. In words: Dexamethasone 0.25 mg/kg/day for 4 days in 12 week old lambs. The class given is in vivo, sheep. The conditions noted are these: after 48 hours of dexamethasone treatment. The procedure:
as §1, §2

A further data set has as its system 4 week old lambs. In words: Dexamethasone 0.25 mg/kg/day for 15 days in 4 week old lambs versus saline. The data set is classed as in vivo, sheep. The procedure:
FIG. 12A, FIG. 12B, FIG. 12C and FIG. 12D: Effect of a glucocorticoid (dexamethasone, 0.25 mg/kg/day) (filled circles, n=8) or saline control treatment (open circles, n=8), administered to 4 week old lambs for 15 days, on (FIG. 12A) plasma NT-CNP (FIG. 12B) plasma alkaline phosphatase activity (FIG. 12C) metacarpal length and (FIG. 12D) body weight. Values are mean±SEM; and
In order to study a possible linkage between changes in NT-CNP and growth velocity, a more prolonged study was undertaken in younger growing lambs.
We undertook a study in normal lambs. Lambs (n=16, aged 4 weeks) either received dexamethasone (0.25 mg/kg/day) or saline injections (controls) for 15 days. The predictive effect of a plasma NT-CNP concentration (drawn 24 hours after starting treatment) on subsequent growth inhibition (defined as growth velocity less than 5% of that of control lambs) was examined by ROC curve analysis (FIG. 13). […] The area under the curve (AUC) was 0.85.

In another data set the test system is J39 antisera. In words: Cross reactivities of the NT-CNP radioimmunoassay using the J39 antisera. The class given is binding, rabbit. The conditions noted are these: NT-CNP RIA. As to the method:
Antiserum production: Human NT-CNP(1-15) (5 mg) was conjugated to 4.2 mg of bovine serum albumin (BSA, fraction V, GibcoBRL, Life Technologies) using 62.2 mg of 1-ethyl-3(3-dimethyaminopropyl) carbodiimide at pH 7 for 18 hours and dialysed against phosphate buffered saline. Rabbits were given a primary subcutaneous injection of the antigen after emulsification with an equal volume of complete Freunds adjuvant (Sigma Chemical Co., St Lois. Mo., USA). Subsequent injections using incomplete Freunds reagent were given at monthly intervals. Rabbits were bled two weeks after each injection and tested for binding of radioactive tracer and its displacement by NT-CNP (1-15) standards.
RIA for N-terminal CNP: NT-CNP(1-15)-Tyr^16 (5 μg) was iodinated using 0.5 mCi Na^125I in the presence of 10 μg chloramine-T in 5 μl 0.5M phosphate buffer, pH 7.5 for 30 seconds, followed by the addition of 50 μg cysteine, 25 μg BSA and 20 μg KI in 100 μl buffer. The resulting mixture was loaded onto a 10 m RP300 Brownlee column and eluted with a gradient from 0-60% acetonitrile in 49 mM KH2PO4 pH 2.9 over 30 min at 1 ml/min, collecting 0.5 ml fractions. The fraction containing the major peak of radioactive NT-CNP(1-15)-[^125I]Tyr^16 was used in the RIA. Peptide standards were made from synthetic human NT-CNP(1-19) taking into account the purity data supplied. […]

Data set [1] deals with antiserum J39, raised in rabbits to a synthetic peptide corresponding to the first 15 amino acids of human ProCNP(1-103), conjugated to BSA. The data set can be described thus: competitive radioimmunoassay: NT-CNP(1-19) standards displace NT-CNP(1-15)-[125I]Tyr16 from antiserum J39.
The target is the same in data set [2]. In words: competitive radioimmunoassay with J39 antiserum.
[3] abbreviates: 4 week old lambs, 0.25 mg/kg/day for 15 days.

For the molecule `C[C@@H]1C[C@H]2[C@@H]3CCC4=CC(=O)C=C[C@]4(C)[C@@]3(F)[C@@H](O)C[C@]2(C)[C@@]1(O)C(=O)CO` [dexamethasone], in the data set on adult sheep, the “fall in plasma NT-CNP from basal” value was 17.7±2.7%. Moreover, in the data set with 12 week old lambs, the “fall in plasma NT-CNP from basal” value came out at 30.8±3.5%. Further, in the data set on 4 week old lambs (setting [3]), the “effect on metacarpal elongation” value was “pronounced decrease”, the “time for NT-CNP to return to control levels after cessation of treatment” value was not above 24 h and the “time to fall in NT-CNP after starting treatment” value is not above 24 h. Besides, the “effect on body weight” value in the data set on 4 week old lambs (4 week old lambs, compared with saline treated lambs) is reported as “small but significant effect”. Besides, in the data set on 4 week old lambs (day 15, dexamethasone versus saline), the “body weight difference between treatment groups at cessation of treatment” value is “not significantly different”.
The molecule “hBNP32: peptide tested for cross reactivity in the NT-CNP radioimmunoassay” displayed a Cross reactivity in the data set on J39 antisera of less than 0.05%.
In the data set with J39 antisera, “hproBNP(1-21): peptide tested for cross reactivity in the NT-CNP radioimmunoassay” showed a Cross reactivity of less than 0.4%.
Turning to KPGAPPKVPRTPPAEELAE [human NT-CNP(1-19)], in data set [1], the ED50 stood at 0.11 nM.
On to GLSKGCFGLKLDRIGSMSGLGC [hCNP-22], for which, in data set [2], the cross reactivity is less than 0.03%.

B1: hCNP-53 (peptide)
peptide: DLRVDTKSRAAWARLLQEHPNARKYKGANKKGLSKGCFGLKLDRIGSMSGLGC
In data set [2], B1 registered a cross reactivity of less than 0.07%.
